Experiments:
Neuropilin-1 (NRP-1) = molecular target: T1, Neuropilin-1 (NRP-1) (Homo sapiens, UniProt O14786); experiment: ELISA, inhibition of VEGF binding to coated receptor; conditions: VEGF-A165b / NRP-1; compound at 10 µM; read-out: Percent of binding inhibition (± SD)
T1 construct: purchased R&D Systems, UK 3870-N1-025
Procedure: (§1) Elisa test was performed covering a 96-well microplate (BD Biosciences, France, cat n° 353046) surface with 100 µL of 1X PBS, pH 7.4 with Ca^2+ and Mg^2+, (Lonza, France, cat n° 17-513F/12) solution containing 0.2 µg/mL of VEGF-R1 (R&D Systems, UK, cat n° 321-FL-050/CF) or 2 µg/mL of NRP-1 (R&D Systems, UK, cat n° 3870-N1-025). The plate was sealed and incubated overnight at 4°C. After 3 washes with 200 µL of 1X PBS 0.5% (v/v) Tween 20 (Sigma, France, cat n° 34078) (Buffer A), the plate was blocked by adding 200 µL of 1× PBS with 0.5% (w/v) BSA (Eurobio, France, cat n° GAUBSA01-65) and agitated at 37°C for 2 h. […] Luminescence was quantified with an EnVision™ 2101 Multilabel reader (Perkin Elmer, USA) and the data analyzed by Wallac Envision manager software. […] Non-specific binding is defined as the signal measured in the absence of receptor coated on the microplate. The specific binding was calculated as the difference between total binding and non-specific binding. The percentage of inhibition was calculated as following: Inhibition % = 100 × ((Signal measured-non specific binding signal))/((Max binding signal obtained without inhibitor-non specific binding signal without receptor)) [formula]

VEGF-R1 = molecular target: T2, VEGF-R1 (Homo sapiens, UniProt P17948); experiment: as above; conditions: VEGF-A165b / VEGF-R1; compound at 10 µM; read-out: Percent of binding inhibition (± SD)
T2 construct: purchased R&D Systems, UK 321-FL-050/CF
Procedure: as §1

MDA-MB-231 cells = experiment: In vivo xenograft study, tumor growth; conditions: NOD-SCID IL-2Rγ-/- mice, MDA-MB-231 xenograft, 10 or 50 mg/kg, oral gavage three times a week, Figure 5B
Procedure: Female (NOD-SCID, IL-2Rγ^-/-) mice 5-6 weeks old were injected subcutaneously with MDA-MB-231 cells (5.10^6) at a single site on their right flanks. Tumors were allowed to grow to about 100 mm^3 before being pair-matched by tumor size into treatment groups (8 mice/group). One group was treated with vehicles (8 mice receiving cremofor 12.5%/ethanol 12.5%/ H2O), one group was treated with 10 mg/kg of the compound 1 of the invention (8 mice receiving compound 1 + cremofor 12.5%/ethanol 12.5%/ H2O), one group was treated with 50 mg/kg of the compound 1 of the invention (8 mice receiving compound 1+ cremofor 12.5%/ethanol 12.5%/ H2O). All groups received 3 times a week by oral gavages approximately 100 µL of a solution containing the compound 1 of the invention. Mice were weighed regularly to assess toxicity of the treatments and the tumors were measured with calipers (width x width x length x Pi/6) to determine tumor growth. Mice survival was assessed during the study and metastatic development was investigated in lung, spleen and liver.

T1 sequence (O14786 22-644 isoform O14786-2 limits assumed): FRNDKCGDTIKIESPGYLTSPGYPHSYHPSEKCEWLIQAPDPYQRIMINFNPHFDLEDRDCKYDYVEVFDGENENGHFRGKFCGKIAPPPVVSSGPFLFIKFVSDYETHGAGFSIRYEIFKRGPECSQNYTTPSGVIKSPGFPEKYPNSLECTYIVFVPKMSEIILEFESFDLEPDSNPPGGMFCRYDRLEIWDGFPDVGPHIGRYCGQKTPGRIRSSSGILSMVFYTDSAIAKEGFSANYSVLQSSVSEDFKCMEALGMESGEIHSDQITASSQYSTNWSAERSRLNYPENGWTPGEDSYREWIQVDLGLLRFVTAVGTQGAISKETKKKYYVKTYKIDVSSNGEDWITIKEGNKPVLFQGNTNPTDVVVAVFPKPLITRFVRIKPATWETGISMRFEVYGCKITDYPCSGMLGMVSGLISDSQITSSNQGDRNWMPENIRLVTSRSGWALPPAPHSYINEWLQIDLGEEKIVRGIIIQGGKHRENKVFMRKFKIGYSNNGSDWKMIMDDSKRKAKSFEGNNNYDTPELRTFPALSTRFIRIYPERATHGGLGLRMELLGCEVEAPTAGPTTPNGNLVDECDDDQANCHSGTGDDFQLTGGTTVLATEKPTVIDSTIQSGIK
T2 sequence (P17948 with tags, fused parts or gaps limits assumed): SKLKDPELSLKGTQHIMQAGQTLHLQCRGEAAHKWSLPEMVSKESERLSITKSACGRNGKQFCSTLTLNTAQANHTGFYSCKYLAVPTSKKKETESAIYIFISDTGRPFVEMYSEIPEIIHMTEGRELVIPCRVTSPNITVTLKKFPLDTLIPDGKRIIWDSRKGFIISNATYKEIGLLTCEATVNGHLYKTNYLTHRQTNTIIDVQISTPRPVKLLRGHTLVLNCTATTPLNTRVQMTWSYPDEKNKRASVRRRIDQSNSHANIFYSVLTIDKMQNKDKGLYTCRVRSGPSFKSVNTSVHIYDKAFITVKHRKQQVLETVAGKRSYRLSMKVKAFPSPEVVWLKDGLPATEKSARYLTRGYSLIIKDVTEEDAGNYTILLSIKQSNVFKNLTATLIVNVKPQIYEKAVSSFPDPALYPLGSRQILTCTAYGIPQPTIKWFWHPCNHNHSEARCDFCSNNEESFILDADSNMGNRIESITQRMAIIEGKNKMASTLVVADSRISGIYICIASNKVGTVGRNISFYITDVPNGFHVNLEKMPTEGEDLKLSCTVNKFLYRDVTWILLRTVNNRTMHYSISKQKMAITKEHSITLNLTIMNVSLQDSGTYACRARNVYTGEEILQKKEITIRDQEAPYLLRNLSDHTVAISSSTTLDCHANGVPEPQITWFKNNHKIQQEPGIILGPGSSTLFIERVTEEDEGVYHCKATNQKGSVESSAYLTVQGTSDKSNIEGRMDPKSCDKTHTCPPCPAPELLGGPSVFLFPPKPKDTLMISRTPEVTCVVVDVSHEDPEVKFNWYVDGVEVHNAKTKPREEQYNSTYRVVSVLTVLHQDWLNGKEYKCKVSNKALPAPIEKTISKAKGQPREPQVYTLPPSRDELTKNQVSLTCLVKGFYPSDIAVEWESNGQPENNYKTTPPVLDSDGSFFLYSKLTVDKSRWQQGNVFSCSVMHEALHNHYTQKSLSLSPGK

Question: CCOc1ccccc1NC(=O)c1ccc(C)c(S(=O)(=O)Nc2ccc(C)cc2)c1 [Compound 1, N-(2-ethoxyphenyl)-4-methyl-3-(N-(p-tolyl)sulfamoyl)benzamide] was tested. Which inhibition at 10 µM (Neuropilin-1 (NRP-1)) did it give?
Answer: 32 ± 3.2%

Question: What about the inhibition at 10 µM (VEGF-R1) of the same compound?
Answer: 23 ± 2.2%

Question: And the “development of tumors (tumor size)” value (MDA-MB-231 cells)?
Answer: inhibits the development of tumors

— patent EP2823816A1, “Inhibitors of Neuropilin and use thereof for the treatment of Neuropilin-related diseases” (Tragex Pharma, priority 2013, dated 2015)
